Columns and labels:
[1] = Induction of DNA (unknown origin) alkylation assessed as amount remaining of unalkylated test oligonucleotides after 18 hrs by LC/MS/UV analysis; set-up: concentration or dose not given beside the values
NCI-H460 [2] = assay: Cytotoxicity against human NCI-H460 cells after 24 hrs under hypoxic condition by luminescence-based Cell-Titer Glo assay; format: functional; conditions: NCI-H460, 24 h
[3] = Selectivity index, ratio of prodrug IC50 under normoxic condition to prodrug IC50 under hypoxic condition; format: functional
NCI-H460 [4] = assay: Cytotoxicity against human NCI-H460 cells after 24 hrs under normoxic condition by luminescence-based Cell-Titer Glo assay; conditions: NCI-H460, 24 h
[5] = Prodrug activation assessed as recombinant human cytochrome P450-reductase-mediated drug metabolism by measuring (S)-7,8-dimethoxy-2-methylene-2,3-dihydro-1H-benzo[e]pyrrolo[1,2-a][1,4]diazepin-5(11aH)-one level under hypoxic condition after 2 hrs by LC-MS analysis; format: ADME; conditions: recombinant enzyme
[6] = Prodrug activation assessed as recombinant human cytochrome P450-reductase-mediated drug metabolism by measuring (S)-7,8-dimethoxy-2-methylene-2,3-dihydro-1H-benzo[e]pyrrolo[1,2-a][1,4]diazepin-5(11aH)-one level under normoxic condition after 2 hrs by LC-MS analysis; format: ADME; conditions: recombinant enzyme
[7] = Prodrug activation assessed as recombinant human cytochrome P450-reductase-mediated drug metabolism by measuring (11aS,11a'S)-8,8'-(pentane-1,5-diylbis(oxy))bis(7-methoxy-2-methylene-2,3-dihydro-1H-benzo[e]pyrrolo[1,2-a][1,4]diazepin-5(11aH)-one) level under normoxic condition after 2 hrs by LC-MS analysis; format: ADME; conditions: recombinant enzyme
[8] = Prodrug activation assessed as recombinant human cytochrome P450-reductase-mediated drug metabolism by measuring (11aS,11a'S)-8,8'-(pentane-1,5-diylbis(oxy))bis(7-methoxy-2-methylene-2,3-dihydro-1H-benzo[e]pyrrolo[1,2-a][1,4]diazepin-5(11aH)-one) level under hypoxic condition after 2 hrs by LC-MS analysis; format: ADME; conditions: recombinant enzyme
[9] = Prodrug activation assessed as recombinant human cytochrome P450-reductase-mediated drug metabolism by measuring (S)-7,8-dimethoxy-2-(quinolin-6-yl)-1H-benzo[e]pyrrolo[1,2-a][1,4]diazepin-5(11aH)-one level under normoxic condition after 2 hrs by LC-MS analysis; format: ADME; conditions: recombinant enzyme
[10] = Prodrug activation assessed as recombinant human cytochrome P450-reductase-mediated drug metabolism by measuring (S)-7,8-dimethoxy-2-(quinolin-6-yl)-1H-benzo[e]pyrrolo[1,2-a][1,4]diazepin-5(11aH)-one level under hypoxic condition after 2 hrs by LC-MS analysis; format: ADME; conditions: recombinant enzyme

Row | Structure (SMILES) | Activity [1] [%] | IC50 (NCI-H460 [2]) [nM] | Ratio IC50 [3] | IC50 (NCI-H460 [4]) [nM] | Drug metabolism [5] [%] | Drug metabolism [6] [%] | Drug metabolism [7] [%] | Drug metabolism [8] [%] | Drug metabolism [9] [%] | Drug metabolism [10] [%]
1 | C=C1C[C@H]2C=Nc3cc(OCCCCCOc4cc5c(cc4OC)C(=O)N4CC(=C)C[C@H]4C=N5)c(OC)cc3C(=O)N2C1 | 42 | 0.062 | 1.5 | 0.092 |  |  |  |  |  | 
2 | C=C1C[C@H]2C(O)N(C(=O)OCc3cncn3C)c3cc(OC)c(OC)cc3C(=O)N2C1 (some centres not stated) |  |  |  |  | 0 | 0 |  |  |  | 
3 | C=C1C[C@H]2C=Nc3cc(OCCCCCOc4cc5c(cc4OC)C(=O)N4CC(=C)C[C@H]4C(O)N5C(=O)OCc4cncn4C)c(OC)cc3C(=O)N2C1 (some centres not stated) |  |  |  |  |  |  | 0 | 0 |  | 
4 | C=C1C[C@H]2C=Nc3cc(OCCCCCOc4cc5c(cc4OC)C(=O)N4CC(=C)C[C@H]4C(O)N5C(=O)OCc4cnc([N+](=O)[O-])n4C)c(OC)cc3C(=O)N2C1 (some centres not stated) | 92 | 1.1 | 1.3 | 1.4 |  |  | 0 | 0 |  | 
5 | C=C1C[C@H]2C(O)N(C(=O)OCc3cnc([N+](=O)[O-])n3C)c3cc(OC)c(OC)cc3C(=O)N2C1 (some centres not stated) | 100 | 35000 | 5.6 | 196000 | 100 | 2 |  |  |  | 
6 | Cn1c(COP(=O)(NCCBr)NCCBr)cnc1[N+](=O)[O-] [EVOFOSFAMIDE] |  | 9.3 | 715 | 6650 |  |  |  |  |  | 
7 | C=C1C[C@H]2C=Nc3cc(OC)c(OC)cc3C(=O)N2C1 | 84 | 273 | 2 | 550 |  |  |  |  |  | 
8 | COc1cc2c(cc1OC)C(=O)N1C=C(c3ccc4ncccc4c3)C[C@H]1C=N2 | 78 | 0.54 | 1.4 | 0.77 |  |  |  |  |  | 
9 | COc1cc2c(cc1OC)N(C(=O)OCc1cnc([N+](=O)[O-])n1C)C(O)[C@@H]1CC(c3ccc4ncccc4c3)=CN1C2=O (some centres not stated) | 100 | 17 | 13.6 | 232 |  |  |  |  | 5 | 92
